{"source": "patent US20220409526A1", "about": "(Retina Foundation Of The Southwest, priority 2019, published 2022)", "key": {"ARPE-19 cells [1]": {"tested_on": "ARPE-19 cells", "assay": "GSH assay (Promega GSH/GSSG-Glo)", "type": "cell-based, human", "settings": "1 mM for 24 hours", "protocol": "The production of cellular GSH levels upon exposure to drugs were measured using the GSH assay kit. NACA and GSH-EE were used as controls in this assay. ARPE-19 cells were grown in white 96 well plates. The cells were exposed to 1 mM solutions of NAC, NACME, NACEE, NACPE, NACBE, NACA and glutathione ethyl ester (GSH-EE) for 24 hours. The solutions were removed and washed with PBS once. Afterwards, GSH assay was carried out according to manufacturer recommended protocol (Promega GSH/GSSG-Glo™) and luminescence readings were obtained with a luminometer, which a higher luminescence intensity indicates a higher GSH concentration."}, "[2]": {"tested_on": "mitochondrial DNA of ARPE-19 cells", "assay": "DNA fragmentation assay (long-extension PCR of mitochondrial DNA)", "type": "cell-based, human", "protocol": "Mitochondrial DNA damage has been linked to pathogenic diseases, including AMD. To determine if pretreatment of RPE cells with NAC alkyl-ester analogues could protect mitochondrial DNA against oxidative damage, a long-extension PCR based assay was used to measure amplification of a large stretch of mitochondrial DNA. The mitochondrial DNA damage assay was performed according to protocols known to those in the art (see Santos, J. H.; Mandavilli, B. S.; Van Houten, B., Measuring Oxidative mtDNA Damage and Repair Using Quantitative PCR. In Mitochondrial DNA: Methods and Protocols, Copeland, W. C., Ed. Humana Press: Totowa, N.J., 2002; pp 159-176). Briefly, ARPE-19 cells were grown to confluency in 6-well plates. The cells were treated with NAC alkyl-ester analogues for 24 hours, washed and then treated with 500 uM HQ for an additional 24 hours. DNA was isolated from the treated cells with a QIAamp DNA mini kit (Qiagen). The DNA samples were diluted to 3 ng/μl for use in PCR reactions. PCR products were quantified using the Quant-iT Picogreen dsDNA Assay kit (Invitrogen). The relative amplification of the large band was normalized to untreated cells. The amplification of the small mitochondrial band was used to normalize the data obtained from the large band to account for mitochondrial DNA copy number."}, "ARPE-19 cells [3]": {"tested_on": "ARPE-19 cells", "assay": "CellTiter-Glo assay (ATP)", "type": "cell-based, human", "protocol": "ARPE-19 cells were grown in white 96 well plates. The cells were first exposed to 500 μM of HQ for 3, 6 and 8 hours and the amount of ATP produced was measured using the CellTiter-Glo assay kit to obtain a time dependent response (FIG. 15). […] Due to the mitochondrial damage caused by HQ, the production of ATP was decreased."}, "ARPE-19 cells [4]": {"tested_on": "ARPE-19 cells", "assay": "ZO-1 staining of cellular junctions", "type": "cell-based, human", "protocol": "ARPE-19 cells were grown on an 8-well slide until confluent. The cells were exposed to 1 mM NAC and NACBE for 24 hours, followed by treatment with 500 μM of HQ for 2 hours. The cells were washed with 3 cycles of PBS, and then fixed with 4% Paraformaldehyde at 4° C. for 30 mins. After fixation the cells were blocked in PBST (0.2% Triton X-100)+1% BSA for 60 mins. Primary antibody (rabbit anti-Zo-1, Invitrogen) was diluted 1/100 in PBST+1% BSA and added overnight at […]. Cells were washed ×3 with PBS and secondary antibody (Donkey anti-Rabbit AF-555, Abcam) was added for 4 hours at RT. Cells were washed ×3 with PBS and mounted with Prolong Diamond Mountant with DAPI (Invitrogen)."}, "ARPE-19 cells [5]": {"tested_on": "ARPE-19 cells", "assay": "in vitro", "type": "cell-based, human", "protocol": "(§1) ARPE-19 cells were grown in DMEM:F-12 supplemented with 10% fetal bovine serum (FBS). For all experiments these cells were split and grown in 6-well plates using MEM-Nic supplemented with 1% FBS according to a previously published procedure.^33 Cells used for all the experiments were between passages 25-30. For all experiments, the 96 well plates and 8-well slides were coated with 0.039 mg/mL collagen I at 6 μg/cm^2. The cells were seeded at a cell density of 70,000 cells/well and 150,000 cells/well using MEM-Nic media for 96 well plates and 8 well slides, respectively. Once the cells are confluent, media was replaced with MEM a, GlutaMAX™, supplemented with 1% FBS for 24 hours before carrying out assay protocols. Exposure to NAC alkyl-ester prodrugs were carried out in MEM a, GlutaMAX™, supplemented with 1% FBS and treatment with HQ was carried out in serum free DMEM:F-12.\n(§2) ARPE-19 Cell viability assays were carried out using XTT/PMS reagent mixtures according to standard procedures known in the art (see Celis, J. E.; Carter, N., Cell Biology: A Laboratory Handbook. Elsevier Science: 2005). Corresponding absorbance readings were obtained using a plate reader at 450 and 660 nm.\n(§3) A dose dependent study was first carried out for ARPE-19 cells using HQ concentrations varying from 100-1000 μM. Cells were then incubated at 37° C., 5% CO2 for 16 hours. HQ doses of less than 400 μM were non-lethal. Using 500 μM HQ for 16 hours gave a cell viability of ˜60%.\n(§4) To evaluate the ability of the NAC alkyl-ester analogues to provide cellular protection against oxidative stress, cells were treated with 0.05 mM of NAC, NACME, NACEE, NACPE and NACBE for 2, 24 and 48 hours. Treated cells were then exposed to 500 μM HQ for 16 hours. HQ solutions were removed and replaced with DMEM:F-12 supplemented with 1% FBS, and followed by the addition of XTT (2,3-bis-(2-methoxy-4-nitro-5-sulfophenyl)-2H-tetrazolium-5-carboxanilide) and PMS (phenazine methyl sulfate).\n(§5) To compare the effectiveness of NACBE and NAC in protecting against oxidative damage, another dose dependent study was carried out by varying the pretreatment concentration from 0.001 mM to 1.0 mM. […] Whereas for NAC, to reach the same cell viability, 0.5 mM concentration was needed (10× times that of NACBE)."}, "ARPE-19 cells [6]": {"tested_on": "ARPE-19 cells", "assay": "HPLC analysis of cellular uptake and conversion to NAC", "type": "in vitro ADME, human", "settings": "1 mM for 1 hour in HBSS", "protocol": "ARPE-19 cells were seeded onto a 60 cm^2 dish and was allowed to grow to confluency. The cells were treated with 1 mM NAC and NACBE for 1 hour in HBSS. The drug solution was aspirated and washed twice with HBSS. The cells were scraped with the aid of methanol (˜1 mL) and collected into 2 mL centrifuge tubes. The cell suspension in methanol was sonicated (for cell lysis) in a water bath for 30 minutes and was centrifuged at 14,000 RPM for 15 minutes. The supernatant was transferred to a HPLC vial and methanol was evaporated under a stream of nitrogen.\nThe sample was resuspended in 50 μL of methanol before injecting into the HPLC system. Samples and standard (20 μL) were injected with an autosampler. Separation was conducted by 0.8 mL/min gradient elution with a water/0.10% formic acid and acetonitrile mobile phase on a 250×4.6-mm ([…]) C18 column (Restek, Pinnacle II) maintained at 25° C. The samples were monitored at 205 nm with a UV detector and analyzed with Agilent Chemstation software."}, "ARPE-19 cells [7]": {"tested_on": "ARPE-19 cells", "assay": "JC-1 staining (confocal)", "settings": "1 mM pretreatment for 24 hours, then 50 μM HQ for 4 hours", "description": "The cells were imaged on the confocal (Zeiss LSM 800) by excitation with the 488 nm laser and emission imaged at 530 nm (green channel) and 590 nm (red channel)."}, "ARPE-19 cells [8]": {"tested_on": "ARPE-19 cells", "assay": "JC-1 assay (mitochondrial membrane potential)", "type": "cell-based, human", "settings": "50 μM HQ for 4 hours, compared to the control", "protocol": "JC-1 assays measuring the change in mitochondrial membrane potential were carried out to evaluate the protection of the NAC alkyl-ester analogues towards mitochondrial damage.\nTypically, JC-1 dye has an inherent green fluorescence at 530 nm. Upon reaching the cell, due to the structural properties of the dye, it will accumulate in the mitochondria making aggregates known as J-aggregates. These J-aggregates consists of a red shifted fluorescence (590 nm). Damaged or unhealthy mitochondria, due to their depolarized membrane potential (compared to healthy ones), will have lesser amounts of aggregates and thus will have low intensity of red emission. Cells with healthy mitochondria will have a more prominent red fluorescence than that in cells with damaged/unhealthy mitochondria due to the ability in forming J-aggregates.\nARPE-19 cells were grown in black, clear bottom 96 well plates. […] With increasing time and dose of HQ, a drop in 590 nm/530 nm fluorescence is seen due to the depolarization of the mitochondria.\nNext, to assess the effect of NAC alkyl-ester analogues on oxidative damage in mitochondria (FIG. 12B), ARPE-19 cells were pretreated with 1 mM NAC, NAC alkyl-ester analogues, NACA, GSH-EE and 1 μM MitoQ for 1 and 24 hours. […] The JC-1 solution was removed and washed once with PBS and fluorescence measurements were obtained in PBS at 485 nm excitation and emission at 535 nm and 590 nm. […]"}, "in vitro": {"assay": "in vitro", "type": "cell-based, human", "settings": "human", "protocol": "as §1, §2, §3, §4, §5"}}}
{"smiles": "CC(=O)N[C@@H](CS)C(N)=O", "values": [{"measurement": "cellular GSH level (luminescence) compared to untreated cells", "setting": "ARPE-19 cells [1]", "value": "did not produce any significant GSH"}]}
{"smiles": "CCCOC(=O)[C@H](CS)NC(C)=O", "note": "[NACPE, N-acetylcysteine propyl ester]", "values": [{"measurement": "cellular GSH level (luminescence) compared to untreated cells", "setting": "ARPE-19 cells [1]", "value": "produced the highest amounts of GSH"}]}
{"smiles": "CC(=O)N[C@@H](CS)C(=O)O", "note": "[NAC, N-acetylcysteine]", "values": [{"measurement": "protection of mitochondrial DNA amplification against HQ", "setting": "[2]; pretreatment for 24 hours (1 mM), then 500 uM HQ for 24 hours", "value": "did not show any signs of protection"}, {"measurement": "ATP production after HQ insult", "setting": "ARPE-19 cells [3]; 1 mM pretreatment, then 500 μM HQ for 3, 6 and 8 hours", "value": "some protection"}, {"measurement": "cellular GSH level (luminescence) compared to untreated cells", "setting": "ARPE-19 cells [1]", "value": "did not produce any significant GSH"}, {"measurement": "ZO-1 staining of cell-cell junctions", "setting": "ARPE-19 cells [4]; 1 mM for 24 hours, without HQ", "value": "proper cell-cell junctions"}, {"measurement": "ZO-1 staining of cellular junctions after exposure to HQ", "setting": "ARPE-19 cells [4]; 1 mM pretreatment for 24 hours, then 500 μM HQ for 2 hours", "value": "diminished or was completely absent"}, {"measurement": "concentration needed for 100% cell viability relative to NACBE", "setting": "ARPE-19 cells [5]; NAC 0.5 mM versus NACBE 0.05 mM", "value": 10, "unit": "×"}, {"measurement": "pretreatment concentration at which 100% cell viability was obtained", "setting": "ARPE-19 cells [5]; pretreatment 0.001-1.0 mM for 24 hours, then 500 μM HQ for 16 hours", "value": 0.5, "unit": "mM"}, {"measurement": "compound and metabolite detected within the cells by HPLC", "setting": "ARPE-19 cells [6]", "value": "no NAC was detected"}, {"measurement": "mitochondrial membrane potential after HQ (JC-1 staining)", "setting": "ARPE-19 cells [7]", "value": "did not help to retain mitochondrial depolarization"}]}
{"smiles": "CCOC(=O)[C@H](CS)NC(C)=O", "note": "[NACEE, N-acetylcysteine ethyl ester]", "values": [{"measurement": "cellular GSH level (luminescence) compared to untreated cells", "setting": "ARPE-19 cells [1]", "value": "produced the highest amounts of GSH"}]}
{"smiles": "CCOC(=O)CNC(=O)[C@H](CS)NC(=O)CC[C@H](N)C(=O)O", "note": "[GSH-EE, glutathione ethyl ester]", "values": [{"measurement": "cellular GSH level (luminescence) compared to untreated cells", "setting": "ARPE-19 cells [1]", "value": "did not produce any significant GSH"}]}
{"smiles": "Oc1ccc(O)cc1", "note": "[HQ, hydroquinone]", "values": [{"measurement": "amplification of mitochondrial DNA", "setting": "[2]; 500 uM HQ for 24 hours", "value": "drastically reduced the amplification of mitochondrial DNA"}, {"measurement": "level of ATP", "setting": "ARPE-19 cells [3]; 500 μM HQ for 3, 6 and 8 hours", "value": "the level of ATP decreased"}, {"measurement": "mitochondrial depolarization (590 nm/530 nm fluorescence)", "setting": "ARPE-19 cells [8]", "value": "moderate depolarization"}, {"measurement": "non-lethal HQ doses", "setting": "ARPE-19 cells [5]; human, 16 h", "value": "less than 400 μM"}, {"measurement": "viability at 16 h, 500 μM", "setting": "in vitro", "value": "~60", "unit": "%"}]}
